Data as given in the NIST ThermoML archive (doi:10.1016/j.fluid.2017.09.023).

Conditions: Crystal, Transpiration method

CC(=O)Nc1ccccc1 [N-phenylethanamide]
Conditions	vapor or sublimation pressure [kPa]
316.3 K	9e-05
320.3 K	0.00015
322.3 K	0.00018
323.2 K	0.00021
325.3 K	0.00025
327 K	0.0003
328.1 K	0.00035
328.2 K	0.00033
333.3 K	0.0006
334.3 K	0.00064
337.1 K	0.00088
339.4 K	0.00114
340.3 K	0.00119
342.4 K	0.00159
345.5 K	0.00205
346.1 K	0.00214
347.2 K	0.0024
349.4 K	0.00299
351.2 K	0.00356
352.5 K	0.00422
355.5 K	0.00532
356.4 K	0.00601
357.4 K	0.00636
359.2 K	0.00759
360.2 K	0.00852
362.2 K	0.01028
364.3 K	0.01261
365.3 K	0.01406
366.7 K	0.01576
368.4 K	0.01777
369.2 K	0.01911
372.2 K	0.02411
